Data as given in PMC6934184, “Selective DNA-PKcs inhibition extends the therapeutic index of localized radiotherapy and chemotherapy” (The Journal of Clinical Investigation, 2019).

Biological target: T1, ABL2 (Arg) (Homo sapiens, UniProt P42684)
T1 construct: purchased Thermo Fisher Scientific (Life Technologies) SelectScreen
Assay: SelectScreen Z'LYTE
Type: biochemical
Outline: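 Compound tested in SelectScreen activity assays, Z'LYTE for CSF1R, CDK1/cyclin B and MAP2K6 and Adapta for CAMK1. ATP for CAMK1 was listed as 10, and Km app was used for CSF1R. Results are expressed in percent.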

T1 sequence (P42684 whole entry): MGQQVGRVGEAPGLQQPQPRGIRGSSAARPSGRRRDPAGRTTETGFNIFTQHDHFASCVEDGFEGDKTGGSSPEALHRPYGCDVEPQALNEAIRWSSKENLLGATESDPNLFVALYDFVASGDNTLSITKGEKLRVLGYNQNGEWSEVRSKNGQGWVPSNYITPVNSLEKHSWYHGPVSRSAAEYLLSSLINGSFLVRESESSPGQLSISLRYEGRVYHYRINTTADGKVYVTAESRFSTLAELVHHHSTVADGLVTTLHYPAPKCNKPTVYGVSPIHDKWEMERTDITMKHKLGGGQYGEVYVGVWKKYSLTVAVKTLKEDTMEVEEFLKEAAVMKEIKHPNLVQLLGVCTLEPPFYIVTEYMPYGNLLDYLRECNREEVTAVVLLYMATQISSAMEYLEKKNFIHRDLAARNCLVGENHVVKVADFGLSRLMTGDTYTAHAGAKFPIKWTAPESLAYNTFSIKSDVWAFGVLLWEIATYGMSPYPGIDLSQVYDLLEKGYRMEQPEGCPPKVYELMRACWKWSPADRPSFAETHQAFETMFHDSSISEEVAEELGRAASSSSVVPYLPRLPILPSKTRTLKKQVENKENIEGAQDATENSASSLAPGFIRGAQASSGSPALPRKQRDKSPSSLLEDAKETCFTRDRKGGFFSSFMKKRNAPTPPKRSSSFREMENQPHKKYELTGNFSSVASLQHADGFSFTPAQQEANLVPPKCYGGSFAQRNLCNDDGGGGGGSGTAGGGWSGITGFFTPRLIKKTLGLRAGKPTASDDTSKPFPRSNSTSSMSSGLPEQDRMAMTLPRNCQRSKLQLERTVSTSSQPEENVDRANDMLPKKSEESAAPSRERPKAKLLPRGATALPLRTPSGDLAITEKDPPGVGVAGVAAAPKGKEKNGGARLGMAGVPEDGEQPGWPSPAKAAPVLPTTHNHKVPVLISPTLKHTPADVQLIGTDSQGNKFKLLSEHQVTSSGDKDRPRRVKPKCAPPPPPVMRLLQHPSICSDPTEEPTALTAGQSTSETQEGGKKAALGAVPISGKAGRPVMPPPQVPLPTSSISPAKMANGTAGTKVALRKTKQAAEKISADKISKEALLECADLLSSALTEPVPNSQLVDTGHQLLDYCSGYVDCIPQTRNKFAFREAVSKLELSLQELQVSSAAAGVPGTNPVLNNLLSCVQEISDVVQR

Work on CN(C(=O)CN1CCOCC1)c1ccc2sc3c(-c4cccc5c(=O)cc(N6CC7CCC(C6)O7)oc45)cccc3c2c1 [NU5455] yielded an inhibition at 1 µM of -10.3%.
